Experimental data reported in a melting point compilation (Tetko et al.; mined from patent text by program, amines drawn as free bases though some values may be those of a salt).

| Compound | melting point [°C] |
| --- | --- |
| Cc1cc(C=O)c(Cl)nc1C | 69 to 70 |
| Clc1ccc(-c2nnc(Cl)s2)cc1 | 125 to 127 |
| COc1cc2c(C)c(C)sc2c(Cl)c1Cl | 159 to 160 |
| COC(=O)c1cc(OCc2ccc3ccccc3n2)n(C(C)C)n1 | 106 to 107 |
| COc1ccc(CNc2cc(C(=O)Nc3ccccc3)ccc2OC)cc1 | 173 to 174 |
| OCCCOc1ccc(Cl)c(Cl)c1 | 40 to 43 |
| CCCCCCC(C(C)O)n1cnc(C#N)c1N (stereo not drawn) | 110 to 111 |
| CN(c1ccc(Cl)cc1)S(=O)(=O)c1cccc(C(=O)Nc2ccc(Br)cc2F)c1 | 126 to 127 |
| CO[C@]1(c2cc(F)cc(Sc3ccc4c(c3)CC/C4=N\O)c2)CCO[C@@H]1C (racemic) | 136 to 137 |
| Nc1ccccc1OC1CCCCC1 | 55 to 56 |
| COC(=O)[C@H]1C[C@H](n2c(Br)c(-c3cccc(OCc4ccccc4)c3)c3c(N)ncnc32)C1 | 124 to 125 |
| CCCCCN(CCC12CC3CC(CC(C3)C1)C2)C(=O)NCC(CC)Cc1ccncc1 (stereo not drawn) | 72 to 77 |
| CC1(C)CCc2ccc(OCCCCN3CCN(c4cccc(Cl)c4Cl)CC3)cc2NC1=O | 110 to 112 |
| CN(C)C(=O)Nc1ccc(Oc2ccc3sncc3c2)c(C(F)(F)F)c1 | 188 |
| CCCNC(=O)c1cccc(-c2cc(-c3ccccc3O)nc(NC(=O)c3cccs3)c2C#N)c1 | 245 to 246 |
| C#Cc1cccc(Oc2nc(Cl)nc(Oc3cccc(C#C)c3)n2)c1 | 121 to 125 |
| C#CC1CC2(CC#CC)C(O)CCC2C2C=CC3=CC(=O)CCC3C12 (stereo not drawn) | 195 to 198 |
| CC1(C)CCC(C)(C)c2cc(C(N)C(=O)Nc3ccc(C(=O)O)cc3)ccc21 (stereo not drawn) | 203 to 204 |
| O=C(CCCOc1ccc(OCc2ccccc2)cc1)C(F)(F)F | 51 to 53 |
| O=C1C=C(Oc2ccc(C3CCCC3)cc2)C(O)O1 (stereo not drawn) | 101 to 103 |
| COc1cc(C(C)=O)ccc1SCCCCl | 53 to 55 |
| COc1ccc2cccc(C(CO)CNC(=O)C(F)(F)F)c2c1 (stereo not drawn) | 138 to 140 |
| CCSC(=O)OCOC(=O)COc1nc(Cl)c(Cl)cc1Cl | 70 to 71 |
| CSCc1ccc(NC(=O)/C=C/c2cnn(C)c2-c2ccc(SC)cc2)cc1 | 145 to 146 |
| COc1cccc(CN2C(=O)C3CCCC3N(C(=O)CN3C(=O)c4ccccc4C3=O)c3ccccc32)c1 (stereo not drawn) | 193 to 194 |

| Compound | melting point [°C] |
| --- | --- |
| O=C(O)c1ccc2c(c1)C(=O)N(c1ccccc1C(=O)O)C2=O | 262 to 264 |
| Fc1cc(C(F)(F)F)cc(Cl)c1Oc1ccc2cn[nH]c2c1 | 134 to 143 |
| COc1cc2c(NC3=CC(=O)C(Cl)=CC3=O)ncnc2cc1OCC1CCCCO1 (stereo not drawn) | 215 to 220 |
| C=CS(=O)(=O)NCc1ccc(C(N)=O)cc1 | 142 to 144 |
| CC(=O)c1sc(-c2ccncc2)c(C)c1-c1ccncc1 | 117 to 118 |
| Cn1c(C(F)(F)F)cc(=O)n(-c2ccc3snc(C(=O)NS(N)(=O)=O)c3c2)c1=O | 221 |
| CN1c2ccccc2-c2nc3ccc(/C=C/C#N)cc3c3cccc1c23 | 262 to 264 |
| CCOC(=O)C(Cl)=NO | 75 to 80 |
| CC(=O)N[C@H](COCc1cc(C)cc(C)c1)Cc1ccccc1 | 76 to 78 |
| COC(=O)C(O)C(Sc1cc(Oc2cccc(C)c2)ccc1N)c1ccc(OC)cc1 (stereo not drawn) | 112 to 115 |
| C=C(C)CNc1cccc(-c2ccnc3c(C(=O)c4cccs4)cnn23)c1 | 104 to 106 |
| Cc1nc(N2CCN(Cc3cccc(C(=O)O)c3)C2=O)sc1C(=O)NCc1ccccc1 | 120 to 123 |
| Cc1cccc(C2=CCN(c3ccc(Cl)nn3)CC2)c1 | 122 |
| CC(C)Nc1cccnc1N1CCN(C(=O)c2ccc(C(=O)N[C@H](CO)C(C)C)cc2)CC1 | 82 to 83 |
| CCCC(=O)N[C@@H]1CCc2cccc(N3CCN(C)CC3)c2C1 | 131 to 132 |
| COc1ncccc1NC(=NC#N)NC(NC(=O)c1cccc(Cl)c1)C(C)(Cl)Cl (stereo not drawn) | 115 to 116 |
| CC(C)(C)OC(=O)N1CCCC(C(=O)N2CCC(c3[nH]nc4c3C(=O)c3c(NC(=O)NN5CCOCC5)cccc3-4)CC2)C1 (stereo not drawn) | 196 to 198 |
| CC1Cn2c(nc3c(c2=O)CCCC3)-c2[nH]c3ccccc3c21 (stereo not drawn) | 220 to 221 |
| CCCCc1nc2c(OC)ccc(CCN(C)C)c2[nH]1 | 116 to 122 |
| O=C1CC(c2cccc(-c3noc(CCCO)n3)c2)=Nc2ccc(-c3ccc(F)cc3)cc2N1 | 220 to 222 |
| COc1cc(C(C)=O)ccc1OCCCCN1CCC(c2nsc3ccccc23)CC1 | 78 to 80 |
| Cc1ccc(-c2ccc3c(c2)C=C(C(=O)Nc2ccc(C4=NCCN4)cc2)CCO3)cc1 | 282 to 283 |
| Oc1ccc(Oc2cc3ccc(Cl)cc3cn2)cc1 | 190 |
| O=C(O)C(F)(CCC(F)(F)C(F)(F)C(F)(F)C(F)(F)F)C(F)(F)F (stereo not drawn) | 45 to 46 |
| Oc1ccc2c(c1)COc1c-2cc2ccc(O)cc2c1-c1ccc(F)cc1 | 229 to 232 |

| Compound | melting point [°C] |
| --- | --- |
| COc1ccc(C2(c3ccc(OC)cc3)Nc3ccc(-c4ccc5[nH]cnc5c4)cc3N2)cc1 | 267 to 270 |
| NC(=O)CCCCCc1cccc2cncn12 | 131 to 132 |
| Cc1ccc2c(c1)NC(=O)C(NC(=O)Nc1cccc(Cl)c1)CC2C1CCCCC1 (stereo not drawn) | 162 to 169 |
| COC(=O)/C=C/c1ccc(N2CCCC2=O)nc1 | 151 to 160 |
| CCOc1nc(N2CCN(C(=O)CCC(=O)O)CC2)nc(N2CCS(=O)CC2)c1[N+](=O)[O-] | 198 to 200 |
| NS(=O)(=O)c1cc2cc(CO)ccc2s1 | 174 to 176 |
| NC(CN1CCC(=C2c3ccccc3C=Cc3ccccc32)CC1)C(=O)NCC(=O)O (stereo not drawn) | 175 to 176 |
| NC(=O)N1C(=O)C(C(=O)c2cc(Cl)cs2)c2ncc(Cl)cc21 (stereo not drawn) | > 250 |
| CC(=O)NC[C@H]1CN(c2ccc(N3CCC(O)(COS(C)(=O)=O)CC3)c(F)c2)C(=O)O1 | 136 to 138 |
| O=C(NC1C=NC=CC1=O)c1ccccc1F (stereo not drawn) | 116 to 117 |
| CCN1C(=O)c2cccnc2N(C)c2nc(-c3ccc[nH]3)ccc21 | 161 to 162 |
| C=CCOc1ccc2c(c1)OCC1c3ccccc3OC21 (stereo not drawn) | 72 to 74 |
| CC(=O)Nc1ccc(-c2nnn(-c3ccc(C(F)(F)F)cc3F)c2N)cc1 | 115 to 116 |
| CC(C)C(=O)N[C@H]1CC[C@H](CCN2CCC(c3cccc4c3CCO4)CC2)CC1 | 212 |
| N#Cc1cnc2cc(Br)ccc2c1Nc1ccc(Cl)cc1Cl | 180 to 183 |
| COC1(c2cc(F)cc(F)c2)CCOCC1 | 100 |
| O=C1NCC(CCOC(=O)c2ccccc2)(c2ccc(F)c(F)c2)O1 (stereo not drawn) | 147 |
| COCCOCCN1C(=O)C2(COc3cc4c(cc32)OCCO4)c2c1ccc1ncsc21 (stereo not drawn) | 156 to 158 |
| COC(=O)CCCc1cc2nc(Cl)ccc2n1S(=O)(=O)c1cccc(N(C)C)c1 | 96 to 97 |
| Cc1csc2ccc(CO)cc12 | 51 to 53 |
| O=CN1CCC2=C(CCCC2)C1Cc1ccc(O)cc1 (stereo not drawn) | 154 to 156 |
| Nc1ncc(-c2ccccc2COC2CCCCC2)s1 | 102 |
| CCCCC1c2cc(NC(=O)CC(C)(C)C)c(C)c(C)c2OC1(C)C (stereo not drawn) | 129 to 130 |
